This note sets out measurements from US9790228B2, “Heterocyclic kinase inhibitors” (Intellikine LLC, priority 2008, dated 2017).

Some results are limits rather than exact numbers.

p110γ, sequence (P48736 whole entry): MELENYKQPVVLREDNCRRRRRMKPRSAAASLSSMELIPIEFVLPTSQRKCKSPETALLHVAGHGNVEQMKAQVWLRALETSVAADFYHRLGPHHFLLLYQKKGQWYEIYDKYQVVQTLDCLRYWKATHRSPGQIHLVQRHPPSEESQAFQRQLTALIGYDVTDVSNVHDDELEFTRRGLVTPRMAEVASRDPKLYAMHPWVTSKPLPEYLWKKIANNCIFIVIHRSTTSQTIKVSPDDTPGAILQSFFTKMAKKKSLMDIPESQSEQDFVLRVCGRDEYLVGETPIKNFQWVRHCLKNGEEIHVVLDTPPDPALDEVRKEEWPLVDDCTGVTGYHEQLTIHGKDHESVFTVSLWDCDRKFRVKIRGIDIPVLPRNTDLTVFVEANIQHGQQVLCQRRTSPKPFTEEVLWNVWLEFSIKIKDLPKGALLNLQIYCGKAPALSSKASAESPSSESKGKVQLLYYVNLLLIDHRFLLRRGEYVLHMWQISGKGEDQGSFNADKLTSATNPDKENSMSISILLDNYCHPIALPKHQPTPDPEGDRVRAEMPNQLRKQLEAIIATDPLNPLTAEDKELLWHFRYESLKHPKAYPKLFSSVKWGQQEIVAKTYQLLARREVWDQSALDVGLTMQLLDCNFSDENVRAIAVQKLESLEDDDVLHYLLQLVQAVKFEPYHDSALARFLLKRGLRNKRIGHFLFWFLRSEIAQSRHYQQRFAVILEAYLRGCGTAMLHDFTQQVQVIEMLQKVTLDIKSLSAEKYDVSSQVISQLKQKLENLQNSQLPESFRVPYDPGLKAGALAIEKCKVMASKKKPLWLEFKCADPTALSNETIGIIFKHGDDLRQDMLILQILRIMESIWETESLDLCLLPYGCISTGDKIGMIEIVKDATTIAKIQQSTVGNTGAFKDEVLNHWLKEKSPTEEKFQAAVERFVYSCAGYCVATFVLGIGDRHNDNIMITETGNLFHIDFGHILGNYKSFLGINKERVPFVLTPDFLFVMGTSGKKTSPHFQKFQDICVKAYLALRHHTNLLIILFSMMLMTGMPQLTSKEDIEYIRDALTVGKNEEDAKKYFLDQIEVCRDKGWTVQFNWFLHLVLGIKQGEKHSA
p110δ/p85α, sequence (O00329 whole entry): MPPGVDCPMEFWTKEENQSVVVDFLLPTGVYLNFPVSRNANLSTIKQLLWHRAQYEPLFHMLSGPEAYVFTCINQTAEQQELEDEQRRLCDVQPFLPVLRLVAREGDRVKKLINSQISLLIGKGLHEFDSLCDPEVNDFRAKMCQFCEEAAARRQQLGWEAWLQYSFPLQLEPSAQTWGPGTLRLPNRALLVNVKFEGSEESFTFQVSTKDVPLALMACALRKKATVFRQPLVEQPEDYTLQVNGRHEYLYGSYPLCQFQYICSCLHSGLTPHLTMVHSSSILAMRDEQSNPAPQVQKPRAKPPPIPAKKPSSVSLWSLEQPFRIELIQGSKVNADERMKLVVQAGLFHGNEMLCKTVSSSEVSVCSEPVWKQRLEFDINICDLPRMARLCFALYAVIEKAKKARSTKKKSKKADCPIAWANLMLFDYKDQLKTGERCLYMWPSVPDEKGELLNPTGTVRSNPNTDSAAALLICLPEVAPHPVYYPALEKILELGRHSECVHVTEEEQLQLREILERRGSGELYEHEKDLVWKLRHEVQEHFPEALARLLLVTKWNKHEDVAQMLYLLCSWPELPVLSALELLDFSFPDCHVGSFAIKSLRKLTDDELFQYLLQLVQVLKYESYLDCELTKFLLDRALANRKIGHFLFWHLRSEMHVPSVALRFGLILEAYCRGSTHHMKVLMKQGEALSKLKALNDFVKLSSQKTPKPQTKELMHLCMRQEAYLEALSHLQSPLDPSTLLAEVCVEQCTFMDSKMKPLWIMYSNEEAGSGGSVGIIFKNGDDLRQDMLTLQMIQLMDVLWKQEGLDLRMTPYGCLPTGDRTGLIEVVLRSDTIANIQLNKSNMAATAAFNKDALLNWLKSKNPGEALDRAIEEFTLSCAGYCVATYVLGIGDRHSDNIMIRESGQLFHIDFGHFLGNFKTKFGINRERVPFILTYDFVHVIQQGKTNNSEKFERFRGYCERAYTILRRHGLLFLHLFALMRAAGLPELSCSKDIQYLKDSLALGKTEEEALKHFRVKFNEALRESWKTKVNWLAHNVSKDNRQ
p110δ/p85α, sequence (P27986 whole entry partner): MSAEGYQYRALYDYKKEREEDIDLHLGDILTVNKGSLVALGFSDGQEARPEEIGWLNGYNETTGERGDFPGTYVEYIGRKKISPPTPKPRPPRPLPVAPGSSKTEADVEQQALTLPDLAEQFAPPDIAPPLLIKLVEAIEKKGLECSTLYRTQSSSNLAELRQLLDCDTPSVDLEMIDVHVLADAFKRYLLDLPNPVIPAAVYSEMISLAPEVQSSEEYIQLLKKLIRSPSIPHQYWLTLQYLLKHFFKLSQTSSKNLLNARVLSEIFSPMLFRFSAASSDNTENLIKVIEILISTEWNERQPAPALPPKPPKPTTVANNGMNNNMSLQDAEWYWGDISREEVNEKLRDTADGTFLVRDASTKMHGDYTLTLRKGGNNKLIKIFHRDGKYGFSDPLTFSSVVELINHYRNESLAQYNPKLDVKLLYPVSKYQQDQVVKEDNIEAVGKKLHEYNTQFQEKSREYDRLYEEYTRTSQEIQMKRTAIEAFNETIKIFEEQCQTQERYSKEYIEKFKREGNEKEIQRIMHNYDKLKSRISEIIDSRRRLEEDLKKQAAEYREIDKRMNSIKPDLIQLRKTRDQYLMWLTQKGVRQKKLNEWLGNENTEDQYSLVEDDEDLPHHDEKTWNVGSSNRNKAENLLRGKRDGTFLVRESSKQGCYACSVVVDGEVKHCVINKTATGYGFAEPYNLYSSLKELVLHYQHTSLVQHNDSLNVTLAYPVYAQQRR
p110β/p85α, sequence (P42338 whole entry, looked up): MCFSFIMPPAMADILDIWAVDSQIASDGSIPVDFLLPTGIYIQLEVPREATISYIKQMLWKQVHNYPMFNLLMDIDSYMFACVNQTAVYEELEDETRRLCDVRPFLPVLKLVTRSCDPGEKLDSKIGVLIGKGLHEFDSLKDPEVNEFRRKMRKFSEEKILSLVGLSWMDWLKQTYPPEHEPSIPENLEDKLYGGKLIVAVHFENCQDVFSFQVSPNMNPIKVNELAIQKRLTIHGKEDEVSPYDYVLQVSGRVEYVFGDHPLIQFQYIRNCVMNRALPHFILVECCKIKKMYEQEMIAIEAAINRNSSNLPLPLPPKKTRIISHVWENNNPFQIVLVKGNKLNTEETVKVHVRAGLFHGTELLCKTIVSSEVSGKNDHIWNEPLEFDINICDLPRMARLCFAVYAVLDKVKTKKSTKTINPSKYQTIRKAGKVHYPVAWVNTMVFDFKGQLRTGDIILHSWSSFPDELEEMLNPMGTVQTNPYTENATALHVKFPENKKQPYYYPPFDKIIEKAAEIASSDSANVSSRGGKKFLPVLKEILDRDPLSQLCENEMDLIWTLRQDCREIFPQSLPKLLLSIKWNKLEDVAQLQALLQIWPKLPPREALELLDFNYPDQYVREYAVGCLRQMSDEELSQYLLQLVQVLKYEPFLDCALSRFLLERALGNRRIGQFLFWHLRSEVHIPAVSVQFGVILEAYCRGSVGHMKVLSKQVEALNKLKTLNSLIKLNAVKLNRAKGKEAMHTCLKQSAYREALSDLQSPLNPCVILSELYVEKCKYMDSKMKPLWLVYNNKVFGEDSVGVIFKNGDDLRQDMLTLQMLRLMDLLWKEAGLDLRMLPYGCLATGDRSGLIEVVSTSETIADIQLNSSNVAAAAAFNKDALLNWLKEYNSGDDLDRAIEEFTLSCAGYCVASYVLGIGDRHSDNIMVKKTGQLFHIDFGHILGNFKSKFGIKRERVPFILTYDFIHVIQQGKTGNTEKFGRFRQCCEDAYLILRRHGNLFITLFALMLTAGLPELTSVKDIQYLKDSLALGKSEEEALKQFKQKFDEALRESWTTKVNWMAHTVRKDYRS
p110α/p85α, sequence (P42336 whole entry): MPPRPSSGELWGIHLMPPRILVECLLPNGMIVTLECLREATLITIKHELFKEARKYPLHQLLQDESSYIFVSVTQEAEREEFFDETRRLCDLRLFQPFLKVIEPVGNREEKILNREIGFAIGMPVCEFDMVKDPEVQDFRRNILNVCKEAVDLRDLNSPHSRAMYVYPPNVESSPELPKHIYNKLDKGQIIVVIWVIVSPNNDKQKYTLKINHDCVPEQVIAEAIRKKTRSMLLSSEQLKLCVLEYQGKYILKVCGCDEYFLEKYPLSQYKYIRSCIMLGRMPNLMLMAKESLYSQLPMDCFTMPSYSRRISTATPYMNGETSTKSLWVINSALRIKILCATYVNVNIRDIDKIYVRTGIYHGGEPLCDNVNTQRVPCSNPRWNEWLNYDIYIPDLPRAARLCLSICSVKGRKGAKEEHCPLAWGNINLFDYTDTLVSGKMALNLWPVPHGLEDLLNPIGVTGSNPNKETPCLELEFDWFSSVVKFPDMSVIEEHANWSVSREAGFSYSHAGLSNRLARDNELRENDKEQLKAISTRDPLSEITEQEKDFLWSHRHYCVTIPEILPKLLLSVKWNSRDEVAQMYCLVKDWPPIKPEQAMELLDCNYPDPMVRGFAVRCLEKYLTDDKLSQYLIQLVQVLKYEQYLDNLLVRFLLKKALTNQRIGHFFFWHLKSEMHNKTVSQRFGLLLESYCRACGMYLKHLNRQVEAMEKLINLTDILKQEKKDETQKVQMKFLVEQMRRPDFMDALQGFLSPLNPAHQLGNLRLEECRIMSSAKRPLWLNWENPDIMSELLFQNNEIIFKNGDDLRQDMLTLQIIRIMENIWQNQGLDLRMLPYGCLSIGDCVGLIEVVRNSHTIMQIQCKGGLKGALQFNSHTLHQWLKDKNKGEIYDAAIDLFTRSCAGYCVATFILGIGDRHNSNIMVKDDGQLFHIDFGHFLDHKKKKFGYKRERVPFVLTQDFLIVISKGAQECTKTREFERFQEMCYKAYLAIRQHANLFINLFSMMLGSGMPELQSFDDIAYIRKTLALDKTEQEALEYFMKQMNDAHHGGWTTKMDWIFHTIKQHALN
p110α/p85α, sequence (P27986 whole entry partner): as the sequence (P27986 whole entry partner) above

The first test concerns the target p110γ (Homo sapiens (Human), UniProt P48736). Description: PI3K γ inhibition assay (TLC lipid kinase or HTRF).
Settings: not given
It counts as biochemical. The protocol:
(§1) Class I PI3-Ks can be either purchased (p110α/p85α, p110β/p85α, p110δ/p85α from Upstate, and p110γ from Sigma) or expressed as previously described (Knight et al., 2004). IC50 values are measured using either a standard TLC assay for lipid kinase activity (described below) or a high-throughput membrane capture assay. Kinase reactions are performed by preparing a reaction mixture containing kinase, inhibitor (2% DMSO final concentration), buffer (25 mM HEPES, pH 7.4, 10 mM MgCl2), and freshly sonicated phosphatidylinositol (100 μg/ml). Reactions are initiated by the addition of ATP containing 10 μCi of γ-32P-ATP to a final concentration 10 or 100 μM and allowed to proceed for 5 minutes at room temperature. For TLC analysis, reactions are then terminated by the addition of […] 1N HCl followed by 160 μl CHCl3:MeOH (1:1). The biphasic mixture is vortexed, briefly centrifuged, and the organic phase is transferred to a new tube using a gel loading pipette tip precoated with CHCl3. This extract is spotted on TLC plates and developed for 3-4 hours in a 65:35 solution of n-propanol:1M acetic acid. The TLC plates are then dried, exposed to a phosphorimager screen (Storm, Amersham), and quantitated. For each compound, kinase activity is measured at 10-12 inhibitor concentrations representing two-fold dilutions from the highest concentration tested (typically, 200 μM).
(§2) Other commercial kits or systems for assaying PI3-K activities are available. The commercially available kits or systems can be used to screen for inhibitors and/or agonists of PI3-Ks including but not limited to PI 3-Kinase α, β, δ, and γ. Anr exemplary system is PI3-Kinase (human) HTRF™ Assay from Upstate. […] Briefly, the assay is a time resolved FRET assay that indirectly measures PIP3 product formed by the activity of a PI3-K. The kinase reaction is performed in a microtitre plate (e.g., a 384 well microtitre plate). The total reaction volume is approximately 20 ul per well. In the first step, each well receives 2 ul of test compound in 20% dimethylsulphoxide resulting in a 2% DMSO final concentration. Next, approximately 14.5 ul of a kinase/PIP2 mixture (diluted in 1× reaction buffer) is added per well for a final concentration of 0.25-0.3 ug/ml kinase and 10 uM PIP2. The plate is sealed and incubated for 15 minutes at room temperature. To start the reaction, 3.5 ul of ATP (diluted in 1× reaction buffer) is added per well for a final concentration of 10 uM ATP. The plate is sealed and incubated for 1 hour at room temperature. The reaction is stopped by adding 5 ul of Stop Solution per well and then 5 ul of Detection Mix is added per well. The plate is sealed, incubated for 1 hour at room temperature, and then read on an appropriate plate reader. Data is analyzed and IC50s are generated using GraphPad Prism 5.
As to `CC(c1cc2ccccc2nc1N1CCCC1)n1nc(-c2cc(O)cc(F)c2)c2c(N)ncnc21` (stereo not drawn) [Compound 30], the IC50 is less than 100 nM.
Regarding `Nc1ncnc2c1c(-c1cc(O)cc(F)c1)nn2Cc1cnc2ccccc2c1` [Compound 61], the IC50 was less than 100 nM.
`CC(c1cc2ccccc2nc1N1CCCC1)n1nc(C#C[C@@H](C)O)c2c(N)ncnc21` (stereo partly drawn) [Compound 31] registered an IC50 of more than 1000 nM.
The compound `Nc1ncnc2c1c(-c1cccc(O)c1)nn2Cc1cc2ccccc2nc1-c1ccccc1C(F)(F)F` [Compound 46] registered an IC50 of 100 to 1000 nM.
The compound `Nc1ncnc2c1c(-c1cccc(O)c1)nn2Cc1cc2ccccc2nc1N1CCCC1` [Compound 47] returned an IC50 of less than 100 nM.
As for `C[C@@H](O)C#Cc1nn(Cc2cc3ccccc3nc2N2CCCC2)c2ncnc(N)c12` [Compound 48], the IC50 is more than 1000 nM.
The same measure, in the same setting: to `Cc1ccccc1-c1nc2ccccc2n1CCn1nc(-c2cc(O)cc(F)c2)c2c(N)ncnc21` [Compound 127] belongs more than 1000 nM; to `CC(C)Nc1nc2ccccc2cc1Cn1nc(-c2cc(O)cc(F)c2)c2c(N)ncnc21` [Compound 25], more than 1000 nM.
`Cc1ccccc1-c1nc2ccccc2nc1Cn1nc(-c2cccc(O)c2)c2c(N)ncnc21` [Compound 108] came in with an IC50 of more than 1000 nM.
For the compound `Cc1cccc2cc(Cn3nc(-c4cc(O)cc(F)c4)c4c(N)ncnc43)c(N3CCOCC3)nc12` [Compound 65], the IC50 is less than 100 nM.
Take `Nc1ncnc2c1c(-c1cccc(O)c1)nn2Cc1cc2ccccc2nc1-c1ccccc1F` [Compound 91]: the IC50 lay in the range of 100 to 1000 nM.
As to `NCc1ccc(F)cc1-c1nc2ccccc2cc1Cn1nc(-c2cc(O)cc(F)c2)c2c(N)ncnc21` [Compound 26], the half-maximal inhibitory concentration (IC50) is more than 1000 nM.
For `CCc1nc2ccccc2cc1Cn1nc(-c2ccc3nc(NC(C)=O)sc3c2)c2c(N)ncnc21` [Compound 98], the IC50 was less than 100 nM.
Same read-out and setting: to `CN1CCN(c2nc3ccccc3cc2CNc2ncnc3[nH]cnc23)CC1` [Compound 87] belongs more than 1000 nM; to `CNc1ncnc2c1c(-c1cc(O)cc(F)c1)nn2Cc1cc2ccccc2nc1N(C)CCN1CCOCC1` [Compound 76], more than 1000 nM.

The next test deals with Balb/c splenic B cells. Briefly: B cell activation and proliferation assay (Alamar Blue). In kind it is cell-based, mouse. To be noted: Mus musculus, B-cell. Here is the method:
The ability of one or more subject compounds to inhibit B cell activation and proliferation is determined according to standard procedures known in the art. For example, an in vitro cellular proliferation assay is established that measures the metabolic activity of live cells. The assay is performed in a 96 well microtiter plate using Alamar Blue reduction. Balb/c splenic B cells are purified over a Ficoll-Paque™ PLUS gradient followed by magnetic cell separation using a MACS B cell Isolation Kit (Miletenyi). Cells are plated in 90 ul at 50,000 cells/well in B Cell Media (RPMI+10% FBS+Penn/Strep+50 uM bME+5 mM HEPES). A compound disclosed herein is diluted in B Cell Media and added in a 10 ul volume. Plates are incubated for 30 min at 37 C and 5% CO2 (0.2% DMSO final concentration). A 50 ul B cell stimulation cocktail is then added containing either 10 ug/ml LPS or 5 ug/ml F(ab′)2 Donkey anti-mouse IgM plus 2 ng/ml recombinant mouse IL4 in B Cell Media. Plates are incubated for 72 hours at 37° C. and 5% CO2. A volume of 15 uL of Alamar Blue reagent is added to each well and plates are incubated for 5 hours at 37 C and 5% CO2. Alamar Blue fluoresce is read at 560Ex/590Em, and IC50 or EC50 values are calculated using GraphPad Prism 5.
The compound `CC(c1cc2ccccc2nc1N1CCCC1)n1nc(-c2cc(O)cc(F)c2)c2c(N)ncnc21` (stereo not drawn) [Compound 30] had an EC50 of less than 100 nM.
In the case of `Nc1ncnc2c1c(-c1cc(O)cc(F)c1)nn2Cc1cnc2ccccc2c1` [Compound 61], the EC50 is less than 100 nM.
On to `CC(c1cc2ccccc2nc1N1CCCC1)n1nc(C#C[C@@H](C)O)c2c(N)ncnc21` (stereo partly drawn) [Compound 31], for which the half-maximal effective concentration (EC50) was in the range of 100 to 1000 nM.
Compound `Nc1ncnc2c1c(-c1cccc(O)c1)nn2Cc1cc2ccccc2nc1-c1ccccc1C(F)(F)F` [Compound 46] showed an EC50 of 100 to 1000 nM.
In the case of `Nc1ncnc2c1c(-c1cccc(O)c1)nn2Cc1cc2ccccc2nc1N1CCCC1` [Compound 47], the half-maximal effective concentration (EC50) was less than 100 nM.
`C[C@@H](O)C#Cc1nn(Cc2cc3ccccc3nc2N2CCCC2)c2ncnc(N)c12` [Compound 48]: the EC50 fell in the range of 100 to 1000 nM.
Take `Cc1ccccc1-c1nc2ccccc2n1CCn1nc(-c2cc(O)cc(F)c2)c2c(N)ncnc21` [Compound 127]: the EC50 is 100 to 1000 nM.
For `CC(C)Nc1nc2ccccc2cc1Cn1nc(-c2cc(O)cc(F)c2)c2c(N)ncnc21` [Compound 25], the 50% effective concentration (EC50) was more than 1000 nM.
Consider `NCc1ccc(F)cc1-c1nc2ccccc2cc1Cn1nc(-c2cc(O)cc(F)c2)c2c(N)ncnc21` [Compound 26], for which the half-maximal effective concentration (EC50) is less than 100 nM.

The next test has as its target p110α/p85α (Homo sapiens (Human), UniProt P42336). Description: PI3K α inhibition assay (TLC lipid kinase or HTRF). It counts as biochemical.
Settings: not given
The protocol:
as §1, §2
For orientation: In TR-FRET formats the signal depends on donor and acceptor labels being close together.
Compound `Cc1ccccc1-c1nc2ccccc2nc1Cn1nc(-c2cccc(O)c2)c2c(N)ncnc21` [Compound 108] showed an IC50 of more than 1000 nM.
`Cc1cccc2cc(Cn3nc(-c4cc(O)cc(F)c4)c4c(N)ncnc43)c(N3CCOCC3)nc12` [Compound 65] came in with an IC50 of 100 to 1000 nM.
In turn, `Nc1ncnc2c1c(-c1cccc(O)c1)nn2Cc1cc2ccccc2nc1-c1ccccc1F` [Compound 91] gave an IC50 of more than 1000 nM.
For the compound `CCc1nc2ccccc2cc1Cn1nc(-c2ccc3nc(NC(C)=O)sc3c2)c2c(N)ncnc21` [Compound 98], the IC50 was more than 1000 nM.
The compound `CN1CCN(c2nc3ccccc3cc2CNc2ncnc3[nH]cnc23)CC1` [Compound 87] returned an IC50 of more than 1000 nM.
On the same count and under the same terms, to `CNc1ncnc2c1c(-c1cc(O)cc(F)c1)nn2Cc1cc2ccccc2nc1N(C)CCN1CCOCC1` [Compound 76] belongs more than 1000 nM.

Another test concerns the target p110δ/p85α (Homo sapiens (Human), UniProt O00329). Description: PI3K δ inhibition assay (TLC lipid kinase or HTRF).
Settings: not given
It counts as biochemical. The protocol:
as §1, §2
In turn, `CC(c1cc2ccccc2nc1N1CCCC1)n1nc(-c2cc(O)cc(F)c2)c2c(N)ncnc21` (stereo not drawn) [Compound 30] gave an IC50 of less than 100 nM.
`Nc1ncnc2c1c(-c1cc(O)cc(F)c1)nn2Cc1cnc2ccccc2c1` [Compound 61] had an IC50 of less than 100 nM.
Still for that read-out and setting: to `CC(c1cc2ccccc2nc1N1CCCC1)n1nc(C#C[C@@H](C)O)c2c(N)ncnc21` (stereo partly drawn) [Compound 31] belongs less than 100 nM; to `Nc1ncnc2c1c(-c1cccc(O)c1)nn2Cc1cc2ccccc2nc1-c1ccccc1C(F)(F)F` [Compound 46], less than 100 nM; to `Nc1ncnc2c1c(-c1cccc(O)c1)nn2Cc1cc2ccccc2nc1N1CCCC1` [Compound 47], less than 100 nM.
In turn, `C[C@@H](O)C#Cc1nn(Cc2cc3ccccc3nc2N2CCCC2)c2ncnc(N)c12` [Compound 48] gave an IC50 of 100 to 1000 nM.
`Cc1ccccc1-c1nc2ccccc2n1CCn1nc(-c2cc(O)cc(F)c2)c2c(N)ncnc21` [Compound 127] registered a concentration for half-maximal inhibition (IC50) of less than 100 nM.
`CC(C)Nc1nc2ccccc2cc1Cn1nc(-c2cc(O)cc(F)c2)c2c(N)ncnc21` [Compound 25]: the IC50 lay in the range of 100 to 1000 nM.
Regarding `Cc1ccccc1-c1nc2ccccc2nc1Cn1nc(-c2cccc(O)c2)c2c(N)ncnc21` [Compound 108], the half-inhibitory concentration (IC50) was 100 to 1000 nM.
Compound `Cc1cccc2cc(Cn3nc(-c4cc(O)cc(F)c4)c4c(N)ncnc43)c(N3CCOCC3)nc12` [Compound 65] had an IC50 of less than 100 nM.
Still for that read-out and setting: then `Nc1ncnc2c1c(-c1cccc(O)c1)nn2Cc1cc2ccccc2nc1-c1ccccc1F` [Compound 91], with 100 to 1000 nM; and `NCc1ccc(F)cc1-c1nc2ccccc2cc1Cn1nc(-c2cc(O)cc(F)c2)c2c(N)ncnc21` [Compound 26], with less than 100 nM; and `CCc1nc2ccccc2cc1Cn1nc(-c2ccc3nc(NC(C)=O)sc3c2)c2c(N)ncnc21` [Compound 98], with less than 100 nM.
For the compound `CN1CCN(c2nc3ccccc3cc2CNc2ncnc3[nH]cnc23)CC1` [Compound 87], the IC50 is more than 1000 nM.
The compound `CNc1ncnc2c1c(-c1cc(O)cc(F)c1)nn2Cc1cc2ccccc2nc1N(C)CCN1CCOCC1` [Compound 76] came in with an IC50 of more than 1000 nM.

The next test deals with p110β/p85α (Homo sapiens, UniProt P42338). Description: PI3K β inhibition assay (TLC lipid kinase or HTRF). It counts as biochemical. The conditions noted are these: read-out: PI3K β IC50. The protocol:
as §1, §2
Turning to `Cc1ccccc1-c1nc2ccccc2nc1Cn1nc(-c2cccc(O)c2)c2c(N)ncnc21` [Compound 108], the IC50 was more than 1000 nM.
The same measure, in the same setting: then `Cc1cccc2cc(Cn3nc(-c4cc(O)cc(F)c4)c4c(N)ncnc43)c(N3CCOCC3)nc12` [Compound 65], with 100 to 1000 nM; and `Nc1ncnc2c1c(-c1cccc(O)c1)nn2Cc1cc2ccccc2nc1-c1ccccc1F` [Compound 91], with more than 1000 nM.
Take `CCc1nc2ccccc2cc1Cn1nc(-c2ccc3nc(NC(C)=O)sc3c2)c2c(N)ncnc21` [Compound 98]: the IC50 is more than 1000 nM.
The same measure, in the same setting: then `CN1CCN(c2nc3ccccc3cc2CNc2ncnc3[nH]cnc23)CC1` [Compound 87], with more than 1000 nM.
On the same count and under the same terms, then `CNc1ncnc2c1c(-c1cc(O)cc(F)c1)nn2Cc1cc2ccccc2nc1N(C)CCN1CCOCC1` [Compound 76], with more than 1000 nM.

Usually IC50 stands for the concentration that inhibits the measured activity by half. In general, EC50 refers to the concentration that produces a half-maximal response.
